Patent US10548894B2, “Combination therapy” (Array BioPharma Inc., priority 2013, dated 2020)

How the values were obtained:
[1] = Clinical dose finding and tolerability (RP2D/MTD) in patients; type: in vivo
Text: The selection of the starting dose follows the ICH S9 guidelines for choosing a starting a dose for a first-in-human trial conducted in patients with cancer, and is shown in Table 6-2.
Table 3 describes the starting doses and the provisional dose levels of study treatments for the combinations that may be evaluated during this trial. Additional dose levels not currently specified may be enrolled and additional patients may be enrolled at a dose level already tested if such changes are deemed necessary to provide optimal safety and tolerability, pharmacokinetic, and pharmacodynamic data.

[2] = tested on: five CRC-derived T1799 mutant BRAF cell lines; assay: CellTiter-Glo proliferation assay, panel summary; type: cell-based; settings: absence of FGF2, read-out: IC50 values, range over cell lines
Experimental: (§1) All cell lines were purchased from ATTC (SK-MEL-5, SK-MEL-24, UACC-62, COLO 741, COLO-800, WM-266-4, Colo205, LS411N, SW 1417), ECACC (MDST8), DSMZ (CL-34) and NCI (LOX IMVI). […] Cell lines were cultured in 37° C. and 5% CO2 incubator and expanded in T-75 flasks. In all cases cells were thawed from frozen stocks, expanded through passage using 1:3 dilutions, counted and assessed for viability using a ViCell counter (Beckman-Coulter), prior to plating in 96-well or 6-well plates. To split and expand cell lines, cells were dislodged from flasks using 0.25% Trypsin-EDTA (GIBCO, Catalog number 25200). All cell lines were determined to be free of mycoplasma contamination as determined by a PCR detection methodology performed at Idexx Radii (Columbia, Mo., USA) and correctly identified by detection of a panel of SNPs. […]
(§2) For CellTiter-Glo™ assays, cells were dispensed into tissue culture treated 96-well plates (Costar, catalog number 3904) with a final volume of 80 μL of medium and at density of 3000 cells per well. […] Plates were incubated for 72 hrs and the effects of compounds on cell proliferation was determined using the CellTiter-Glo™ Luminescent Cell Viability Assay (CTG, Promega) and a Victor™ X4 plate reader (Perkin Elmer). […] Cells were continuously monitored every two hours for seven days with the xCELLigence real-time impedance based cell analyzer. […]

[3] = tested on: six melanoma T1799 mutant BRAF cell lines; assay: CellTiter-Glo proliferation assay, panel summary; type: cell-based; settings: absence of FGF2, read-out: IC50 values, range over cell lines
Experimental: as §1, §2

COC(=O)N[C@@H](C)CNc1nccc(-c2cn(C(C)C)nc2-c2cc(Cl)cc(NS(C)(=O)=O)c2F)n1 [Compound of Formula (I)]
observed adverse events ([1]; in clinic, tested at up to 700 mg QD): reversible and manageable
RP2D (recommended phase II dose) ([1]; single agent, patients): 450 mg QD
IC50 [2]: 4 to 185 nM
IC50 [3]: 3 to 470 nM
